Experiments:
Settings in all cases: 1 µM; inhibitor
WEE1 = WEE1 (Homo sapiens, UniProt P30291)
MEK5 = MEK5 (Homo sapiens, UniProt Q13163)
CLK4 = CLK4 (Homo sapiens, UniProt Q9HAZ1)
LIMK1 = LIMK1 (Homo sapiens, UniProt P53667)
LIMK2 = LIMK2 (Homo sapiens, UniProt P53671)
PAK6 = PAK6 (Homo sapiens, UniProt Q9NQU5)
MARK1 = MARK1 (Homo sapiens, UniProt Q9P0L2)
CDK20 = CDK20 (Homo sapiens, UniProt Q8IZL9)
PAK1 = PAK1 (Homo sapiens, UniProt Q13153)
IRAK1 = IRAK1 (Homo sapiens, UniProt P51617)
RPS6KA3 = RPS6KA3 (Homo sapiens, UniProt P51812)
RPS6KA3, sequence (P51812 whole entry): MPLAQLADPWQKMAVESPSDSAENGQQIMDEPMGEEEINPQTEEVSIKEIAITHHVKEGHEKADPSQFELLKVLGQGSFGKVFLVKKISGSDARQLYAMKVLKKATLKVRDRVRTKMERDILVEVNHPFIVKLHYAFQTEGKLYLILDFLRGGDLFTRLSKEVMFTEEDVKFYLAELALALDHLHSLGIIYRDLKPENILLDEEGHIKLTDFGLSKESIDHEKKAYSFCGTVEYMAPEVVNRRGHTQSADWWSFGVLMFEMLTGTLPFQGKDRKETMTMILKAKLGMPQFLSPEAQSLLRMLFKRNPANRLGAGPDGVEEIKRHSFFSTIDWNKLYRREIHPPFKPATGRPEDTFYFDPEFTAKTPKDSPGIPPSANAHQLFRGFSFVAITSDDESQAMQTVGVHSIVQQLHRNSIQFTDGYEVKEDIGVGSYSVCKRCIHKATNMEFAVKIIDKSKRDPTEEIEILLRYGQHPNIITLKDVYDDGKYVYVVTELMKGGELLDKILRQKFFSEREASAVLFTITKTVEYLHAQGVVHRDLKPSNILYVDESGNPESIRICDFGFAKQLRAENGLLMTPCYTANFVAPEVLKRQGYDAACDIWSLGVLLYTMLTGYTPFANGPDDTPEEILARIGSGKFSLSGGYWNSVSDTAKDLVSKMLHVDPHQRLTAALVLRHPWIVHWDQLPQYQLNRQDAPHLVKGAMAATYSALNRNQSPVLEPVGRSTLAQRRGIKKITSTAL

TYK2 = TYK2 (Homo sapiens, UniProt P29597)
TYK2, sequence (P29597 whole entry): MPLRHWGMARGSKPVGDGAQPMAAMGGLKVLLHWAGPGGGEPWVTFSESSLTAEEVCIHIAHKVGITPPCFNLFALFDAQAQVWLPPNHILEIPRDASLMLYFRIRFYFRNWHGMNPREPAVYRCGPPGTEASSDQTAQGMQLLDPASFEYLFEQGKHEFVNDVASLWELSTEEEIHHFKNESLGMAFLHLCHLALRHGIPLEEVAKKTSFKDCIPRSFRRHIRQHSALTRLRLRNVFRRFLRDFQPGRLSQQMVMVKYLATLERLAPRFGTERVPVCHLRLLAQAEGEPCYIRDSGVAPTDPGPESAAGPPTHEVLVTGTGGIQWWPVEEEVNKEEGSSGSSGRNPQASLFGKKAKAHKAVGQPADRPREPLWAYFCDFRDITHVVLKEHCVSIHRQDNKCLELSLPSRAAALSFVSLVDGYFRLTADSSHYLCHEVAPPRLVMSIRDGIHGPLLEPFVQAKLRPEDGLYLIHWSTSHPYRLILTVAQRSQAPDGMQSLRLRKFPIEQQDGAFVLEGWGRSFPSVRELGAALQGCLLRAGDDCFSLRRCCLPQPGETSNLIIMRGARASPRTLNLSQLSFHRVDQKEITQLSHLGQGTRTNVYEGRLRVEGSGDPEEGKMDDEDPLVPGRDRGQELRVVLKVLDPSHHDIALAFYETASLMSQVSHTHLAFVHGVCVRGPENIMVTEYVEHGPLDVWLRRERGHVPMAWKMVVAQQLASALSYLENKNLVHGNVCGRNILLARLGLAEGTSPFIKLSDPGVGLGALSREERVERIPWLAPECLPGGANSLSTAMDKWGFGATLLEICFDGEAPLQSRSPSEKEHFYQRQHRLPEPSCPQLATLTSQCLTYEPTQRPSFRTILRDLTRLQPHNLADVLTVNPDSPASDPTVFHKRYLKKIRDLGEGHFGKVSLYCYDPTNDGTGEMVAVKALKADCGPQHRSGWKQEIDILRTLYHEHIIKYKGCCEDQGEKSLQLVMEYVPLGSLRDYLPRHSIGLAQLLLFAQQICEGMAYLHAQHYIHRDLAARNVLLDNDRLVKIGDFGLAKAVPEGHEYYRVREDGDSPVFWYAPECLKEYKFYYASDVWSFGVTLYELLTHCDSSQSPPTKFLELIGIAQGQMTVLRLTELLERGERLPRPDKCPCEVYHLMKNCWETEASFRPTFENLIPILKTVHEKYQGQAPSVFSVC

CDK10 = CDK10 (Homo sapiens, UniProt Q15131)
PRK2 = PRK2 (Homo sapiens, UniProt Q16513)
SLK = SLK (Homo sapiens, UniProt Q9H2G2)
IGF1R = IGF1R (Homo sapiens, UniProt P08069)
FGR = FGR (Homo sapiens, UniProt P09769)
FLT3 = FLT3 (Homo sapiens, UniProt P36888)
MAPKAPK5 = MAPKAPK5 (Homo sapiens, UniProt Q8IW41)
NEK3 = NEK3 (Homo sapiens, UniProt P51956)
JAK1 = JAK1 (Homo sapiens, UniProt P23458)
MAP3K10 = MAP3K10 (Homo sapiens, UniProt Q02779)
CAMK2G = CAMK2G (Homo sapiens, UniProt Q13555)
AurA = AurA (Homo sapiens, UniProt O14965)
ABL1 = ABL1 (Homo sapiens, UniProt P00519)
NEK2 = NEK2 (Homo sapiens, UniProt P51955)
MEK1 = MEK1 (Homo sapiens, UniProt Q02750)
PRKG1 = PRKG1 (Homo sapiens, UniProt Q13976)
PRKG1, sequence (Q13976 whole entry): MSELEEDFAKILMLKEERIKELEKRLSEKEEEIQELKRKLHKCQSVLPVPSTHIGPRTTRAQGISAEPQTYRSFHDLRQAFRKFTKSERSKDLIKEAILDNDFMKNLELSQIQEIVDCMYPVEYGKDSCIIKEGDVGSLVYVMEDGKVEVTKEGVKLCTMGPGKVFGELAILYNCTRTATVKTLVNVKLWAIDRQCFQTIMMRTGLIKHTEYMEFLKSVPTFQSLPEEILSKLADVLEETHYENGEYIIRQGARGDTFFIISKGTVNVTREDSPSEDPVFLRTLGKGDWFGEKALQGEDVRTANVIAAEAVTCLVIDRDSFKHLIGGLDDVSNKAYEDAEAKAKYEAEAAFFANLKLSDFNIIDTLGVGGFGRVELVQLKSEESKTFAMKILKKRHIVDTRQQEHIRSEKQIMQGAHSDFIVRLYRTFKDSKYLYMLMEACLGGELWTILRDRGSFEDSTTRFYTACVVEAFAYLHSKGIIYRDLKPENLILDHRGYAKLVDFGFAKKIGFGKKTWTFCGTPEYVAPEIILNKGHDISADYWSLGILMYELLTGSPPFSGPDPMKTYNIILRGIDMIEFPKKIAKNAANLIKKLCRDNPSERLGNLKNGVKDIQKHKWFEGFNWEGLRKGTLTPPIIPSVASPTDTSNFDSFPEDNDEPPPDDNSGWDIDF

SIK1 = SIK1 (Homo sapiens, UniProt P57059)
TAOK2 = TAOK2 (Homo sapiens, UniProt Q9UL54)
MAPKAPK2 = MAPKAPK2 (Homo sapiens, UniProt P49137)

PAK6, sequence (Q9NQU5 whole entry): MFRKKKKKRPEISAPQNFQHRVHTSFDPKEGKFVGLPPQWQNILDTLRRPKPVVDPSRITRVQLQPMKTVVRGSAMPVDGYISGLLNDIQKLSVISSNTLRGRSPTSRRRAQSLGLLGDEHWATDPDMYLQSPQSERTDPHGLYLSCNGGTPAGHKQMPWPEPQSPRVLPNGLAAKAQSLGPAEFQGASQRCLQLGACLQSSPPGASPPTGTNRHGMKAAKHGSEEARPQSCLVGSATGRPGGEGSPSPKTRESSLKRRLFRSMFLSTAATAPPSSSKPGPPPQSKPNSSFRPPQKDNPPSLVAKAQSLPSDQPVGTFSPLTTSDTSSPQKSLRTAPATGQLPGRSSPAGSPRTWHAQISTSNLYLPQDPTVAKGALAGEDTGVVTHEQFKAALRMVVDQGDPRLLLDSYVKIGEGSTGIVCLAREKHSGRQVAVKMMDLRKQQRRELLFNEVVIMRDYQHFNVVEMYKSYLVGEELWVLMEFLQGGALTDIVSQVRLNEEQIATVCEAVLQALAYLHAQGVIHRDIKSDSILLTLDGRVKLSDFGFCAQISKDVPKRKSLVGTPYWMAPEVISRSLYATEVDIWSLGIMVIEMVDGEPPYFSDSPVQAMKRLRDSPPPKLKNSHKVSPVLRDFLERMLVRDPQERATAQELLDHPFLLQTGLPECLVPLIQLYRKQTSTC
MARK1, sequence (Q9P0L2 whole entry): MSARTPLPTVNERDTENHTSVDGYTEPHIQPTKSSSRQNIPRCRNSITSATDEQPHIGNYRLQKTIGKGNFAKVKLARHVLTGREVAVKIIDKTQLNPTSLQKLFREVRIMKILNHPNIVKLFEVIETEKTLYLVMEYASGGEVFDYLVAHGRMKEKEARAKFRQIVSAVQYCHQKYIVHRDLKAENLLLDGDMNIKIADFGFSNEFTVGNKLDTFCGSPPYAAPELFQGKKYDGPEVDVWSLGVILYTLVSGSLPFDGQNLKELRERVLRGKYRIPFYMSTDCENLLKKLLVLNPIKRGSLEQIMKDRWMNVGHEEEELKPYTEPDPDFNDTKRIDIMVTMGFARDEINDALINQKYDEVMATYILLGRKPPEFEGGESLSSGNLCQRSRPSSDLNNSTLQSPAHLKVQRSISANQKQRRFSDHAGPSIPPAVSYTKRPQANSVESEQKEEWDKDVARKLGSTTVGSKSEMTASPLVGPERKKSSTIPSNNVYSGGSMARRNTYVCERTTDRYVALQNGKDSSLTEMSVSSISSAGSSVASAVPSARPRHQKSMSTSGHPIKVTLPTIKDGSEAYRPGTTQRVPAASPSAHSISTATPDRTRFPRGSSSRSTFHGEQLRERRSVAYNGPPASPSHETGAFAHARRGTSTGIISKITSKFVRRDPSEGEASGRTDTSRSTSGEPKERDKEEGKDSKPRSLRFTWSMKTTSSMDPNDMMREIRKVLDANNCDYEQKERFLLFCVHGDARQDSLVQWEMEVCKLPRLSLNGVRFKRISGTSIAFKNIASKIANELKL
IRAK1, sequence (P51617 whole entry): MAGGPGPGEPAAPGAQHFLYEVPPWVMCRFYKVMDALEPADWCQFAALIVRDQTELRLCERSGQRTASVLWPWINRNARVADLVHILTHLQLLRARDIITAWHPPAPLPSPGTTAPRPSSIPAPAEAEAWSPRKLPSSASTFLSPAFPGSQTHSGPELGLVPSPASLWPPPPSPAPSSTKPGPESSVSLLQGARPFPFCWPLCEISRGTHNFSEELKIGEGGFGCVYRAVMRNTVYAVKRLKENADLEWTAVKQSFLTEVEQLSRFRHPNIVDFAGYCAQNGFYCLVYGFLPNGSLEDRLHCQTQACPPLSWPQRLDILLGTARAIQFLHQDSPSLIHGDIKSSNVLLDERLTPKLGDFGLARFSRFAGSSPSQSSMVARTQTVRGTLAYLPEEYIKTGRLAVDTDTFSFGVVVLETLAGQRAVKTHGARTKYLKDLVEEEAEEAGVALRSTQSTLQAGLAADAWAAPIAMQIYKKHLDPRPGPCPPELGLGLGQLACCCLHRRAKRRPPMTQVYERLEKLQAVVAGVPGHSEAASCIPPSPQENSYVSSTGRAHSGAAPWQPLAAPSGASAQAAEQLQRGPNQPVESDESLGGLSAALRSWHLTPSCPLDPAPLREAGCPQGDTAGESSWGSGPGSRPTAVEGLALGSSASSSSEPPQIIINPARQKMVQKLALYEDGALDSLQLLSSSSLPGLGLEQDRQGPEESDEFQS

21c Remaining activity, percent of control [%] (WEE1): 88.0%
21c Remaining activity, percent of control [%] (MEK5): 70.1%
21c Remaining activity, percent of control [%] (CLK4): 76.4%
21c Remaining activity, percent of control [%] (LIMK1): 36.6%
21c Remaining activity, percent of control [%] (LIMK2): 38.2%
21c Remaining activity, percent of control [%] (PAK6): 95.0%
21c Remaining activity, percent of control [%] (MARK1): 96.0%
21c Remaining activity, percent of control [%] (CDK20): 84.4%
21c Remaining activity, percent of control [%] (PAK1): 94.9%
21c Remaining activity, percent of control [%] (IRAK1): 101.8%
21c Remaining activity, percent of control [%] (RPS6KA3): 87.3%
21c Remaining activity, percent of control [%] (TYK2): 116.8%
21c Remaining activity, percent of control [%] (CDK10): 85.1%
21c Remaining activity, percent of control [%] (PRK2): 89.5%
21c Remaining activity, percent of control [%] (SLK): 61.9%
21c Remaining activity, percent of control [%] (IGF1R): 102.9%
21c Remaining activity, percent of control [%] (FGR): 75.3%
21c Remaining activity, percent of control [%] (FLT3): 103.4%
21c Remaining activity, percent of control [%] (MAPKAPK5): 110.4%
21c Remaining activity, percent of control [%] (NEK3): 94.1%
21c Remaining activity, percent of control [%] (JAK1): 88.0%
21c Remaining activity, percent of control [%] (MAP3K10): 94.4%
21c Remaining activity, percent of control [%] (CAMK2G): 132.6%
21c Remaining activity, percent of control [%] (AurA): 83.6%
21c Remaining activity, percent of control [%] (ABL1): 106.1%
21c Remaining activity, percent of control [%] (NEK2): 93.5%
21c Remaining activity, percent of control [%] (MEK1): 118.7%
21c Remaining activity, percent of control [%] (PRKG1): 94.8%
21c Remaining activity, percent of control [%] (SIK1): 86.3%
21c Remaining activity, percent of control [%] (TAOK2): 93.6%
21c Remaining activity, percent of control [%] (MAPKAPK2): 106.1%
SMILES: O=C1NCCCCCNc2nc(c3ccccc3n2)Nc2cc1[nH]n2 [21c, (Z)-3^1H-2,5,11-triaza-1(4,2)-quinazolina-3(3,5)-pyrazolacycloundecaphan-4-one]

From article doi:10.1101/2023.10.20.563248v1 (biorxiv, 2023)
